Read-outs that look alike come from different tables or passages of the source.
What was measured:
aconitate hydratase (AH) [1] = system: T1, aconitate hydratase (AH); conditions: read-out: Citrate / Km; enzyme from cells grown at pH 5.5; 50 mM Tris-HCl pH 7.8, 25 °C; partially purified
T1 construct: gene ACO1

aconitate hydratase (AH) [2] = system: T2, aconitate hydratase (AH); test: spectrophotometric at […] nm; Lineweaver-Burk; assay type: biochemical, Yarrowia lipolytica; conditions: enzyme from cells grown at pH 5.5; 50 mM Tris-HCl pH 7.8, 25 °C; partially purified; reverse reaction; read-out: Isocitrate / Km
T2 construct: gene ACO1; cells grown at pH 5.5; [4Fe-4S] enzyme

Row | Km (aconitate hydratase (AH) [2]) [µM] | Compound | Km (aconitate hydratase (AH) [1]) [µM]
1 | – | O=C(O)CC(O)(CC(=O)O)C(=O)O [citrate] | 320 ± 11
2 | 270 ± 15 | O=C(O)C[C@H](C(=O)O)[C@@H](O)C(=O)O [isocitrate] | –

Reference: publication PMC10143702, “Kinetic and Regulatory Properties of Yarrowia lipolytica Aconitate Hydratase as a Model-Indicator of Cell Redox State under pH Stress” (International Journal of Molecular Sciences, 2023)
